Test results reported in patent US9739767B2, “Method of screening for plant defense activators, plant defense activators, and method of enhancing immune response” (TOKYO UNIVERSITY OF SCIENCE FOUNDATION, priority 2010, dated 2017).

B1: cryptogein (protein, UniProt P15570 21-118, looked up)
Beta-elicitin cryptogein: TACTATQQTAAYKTLVSILSDASFNQCSTDSGYSMLTAKALPTTAQYKLMCASTACNTMIKKIVTLNPPNCDLTVPTSGLVLNVYSYANGFSNKCSSL
notes: an elicitin derived from oomycete, Phytophthora cryptogea; trigger material (elicitor)

Columns and labels:
[1] = tested on: OsWRKY45; settings: rice; cited from earlier work
[2] = tested on: innate immunity in tobacco plant; experiment: Innate immunity gene expression (PR1a, PR1b) in tobacco seedlings after cryptogein; format: in vivo, Nicotiana tabacum; settings: 6 days on compound, cryptogein 2000 nM, 0, 1 and 24 h (FIG. 4)
Method: (§1) Total RNA was isolated from plant cells using Trizol (Invitrogen, Carlsbad, Calif., USA) reagent in accordance with the manufacturer's protocol and quantified using a spectrophotometer. First-strand cDNA was synthesized from 3 μg total RNA with an oligo-dT primer and reverse transcriptase.
(§2) Real-time PCR was performed using an ABI PRISM 7300 sequence detection system (Applied Biosystems, Foster City, Calif., USA) with SYBR Green real-time PCR Master Mix (TOYOBO, Osaka, Japan) and the gene-specific primers. PCR amplification was performed with an initial denaturation at 95° C. for 10 min followed by 40 cycles of incubations at 95° C. for 15 s, 60° C. for 15 s, and 72° C. for 45 s. Relative mRNA abundances were calculated using the comparative Ct method. Actin or tubulin was used as an internal control. The following primers were used in the experiment.
Tobacco seedlings were grown on MS plate for 7 days and then the seedlings were transferred to MS plates containing chemical compounds. After grown for 6 days, cryptogein (2000 nM) was added to the medium and the samples for RNA extraction were collected at the indicated time (0, 1 and 24 h).

[3] = tested on: salicylic acid-dependent defense pathway and jasmonic acid-dependent defense pathway; experiment: Defense gene expression (PR1, PDF1.2) in Arabidopsis seedlings, real-time RT-PCR; format: in vivo, Arabidopsis thaliana; settings: Arabidopsis seedlings on MS plates containing compound for 3 or 6 days (FIG. 2)
Method: as §1, §2
Arabidopsis seedlings were grown on MS plate for 12 days and then the seedlings were transferred to MS plates containing chemical compounds. After grown for 3 or 6 days, the samples for RNA extraction were collected.

[4] = tested on: Pseudomonas syringae pv tomato (Pst) DC3000; experiment: Pathogen infection assay in Arabidopsis thaliana (Col-0); format: in vivo; settings: Arabidopsis thaliana (Col-0) irrigated with compound for 5 days, dip inoculation with Pst DC3000, 3 days (FIG. 3)
Method: Arabidopsis thaliana (Col-0) were grown in sterilized potting soil (Kureha) in plastic pots (5 cm×5 cm×5 cm) inside a growth chamber under a 16 h-8 h light-dark regimen at 22° C. with 60% humidity. After grown for 3 weeks, plants were irrigated with chemical compounds for 5 days.
Pseudomonas syringae pv tomato (Pst) DC3000 was cultured in nutrient broth medium (Eiken Chemical) for 24 h at 28° C., and a bacterial suspension was prepared in 10 mM MgCl2 (2×10^5 colony-forming units per mL). Challenge inoculation was performed by dipping the plants in bacterial solution. After incubation for 3 days at 22° C., the leaves were harvested from the inoculated plants. Three to four leaves from different plants were combined, weighed, and then homogenized in 10 mM MgCl2; the homogenate was then plated on nutrient broth agar containing rifampicin (50 mg/L) at appropriate dilutions. After incubation for 2 days at 28° C., the number of rifampicin-resistant bacterial colonies was counted. More than six homogenized samples were prepared for each experiment.

[5] = tested on: innate immunity in rice; experiment: Innate immunity gene expression (PBZ1, WRKY45) in rice seedlings after N-acetylchitoheptaose; format: in vivo, Oryza sativa; settings: 2 days on compound, [GlcNAc]7 10 μM, observed 24 hours after elicitor (FIG. 5)
[6] = tested on: tobacco leaves; experiment: Salicylic acid accumulation in tobacco leaves after cryptogein; format: in vivo; settings: tobacco leaves treated with 2,000 nM cryptogein; range from several thousand, varying with conditions
Method: In the case of tobacco BY-2 cells compared to normal tobacco plant, the salicylic acid accumulation level of untreated tobacco BY-2 cells is from 10 to 20 ng/g (fresh weight), while the salicylic acid accumulation level of untreated tobacco leaves is several hundred ng/g (fresh weight). When treated with 2,000 nM cryptogein, the salicylic acid accumulation level of treated tobacco BY-2 cells increases to a level of approximately from 100 to 150 ng/g (fresh weight), while the salicylic acid accumulation level of treated tobacco leaves increases to, though varying depending on conditions, a level in the range of from several thousand ng/g (fresh weight) to 10,000 ng/g (fresh weight).

Molecule | enhancement of immune response after treatment with cryptogein [2] | activation of salicylic acid-dependent and jasmonic acid-dependent defense pathways [3] | also measured
c1ccc2snnc2c1 [BTH, benzothiadiazole] | – | – | time to upregulation of OsWRKY45 after treatment [1]: ≤ 3 h
O=c1cc(N2CCNCC2)oc2c(-c3ccccc3)cccc12 [Compound 2, LY303511] | enhanced an immune response | activated both the salicylic acid-dependent defense pathway and the jasmonic acid-dependent defense pathway | –
Cn1cnc(=N)c2nc[nH]c21 [Compound 3, 3MA] | enhanced an immune response | activated both the salicylic acid-dependent defense pathway and the jasmonic acid-dependent defense pathway | resistance to a plant disease [4]: effective in enhancing resistance to a plant disease; enhancement of immune response after elicitor application [5]: enhanced an immune response
B1 | – | – | salicylic acid accumulation level [6]: ≤ 10,000 ng/g (fresh weight)
